Source: patent US20070037752A1, “Novel alanyl-amino peptidase inhibitors for functionally influencing different cells and treating immunological, inflammatory, neuronal, and other diseases” (priority 2003, published 2007)
Read-outs that look alike come from different tables or passages of the source. Each block holds one molecule with its values, some of them ahead of it.

Target: alanyl aminopeptidases (APN) (Homo sapiens, UniProt P15144)
Experiment: Inhibition of alanyl aminopeptidase enzymatic activity, fluorogenic substrate (Ala)2-rhodamine 110
Type: biochemical
Procedure: The inhibition characteristics measured are referred to as IC-50 values or ID50 values (the latter marked with “*”) for said enzyme. The enzymatic activity was determined by means of the fluorogenic substrate/product (Ala)2-rhodamine 110.

[1] = Table 3, starred values = ID50, read-out: ID50 APN (values marked with *)
[2] = Table 3, unstarred values, read-out: IC50APN
[3] = Table 4, unstarred values, read-out: IC50APN
[4] = Table 9, unstarred values, read-out: IC50APN
[5] = Table 4, starred values = ID50, read-out: ID50 APN (values marked with *)

Sequence of alanyl aminopeptidases (APN) (P15144 whole entry, species assumed): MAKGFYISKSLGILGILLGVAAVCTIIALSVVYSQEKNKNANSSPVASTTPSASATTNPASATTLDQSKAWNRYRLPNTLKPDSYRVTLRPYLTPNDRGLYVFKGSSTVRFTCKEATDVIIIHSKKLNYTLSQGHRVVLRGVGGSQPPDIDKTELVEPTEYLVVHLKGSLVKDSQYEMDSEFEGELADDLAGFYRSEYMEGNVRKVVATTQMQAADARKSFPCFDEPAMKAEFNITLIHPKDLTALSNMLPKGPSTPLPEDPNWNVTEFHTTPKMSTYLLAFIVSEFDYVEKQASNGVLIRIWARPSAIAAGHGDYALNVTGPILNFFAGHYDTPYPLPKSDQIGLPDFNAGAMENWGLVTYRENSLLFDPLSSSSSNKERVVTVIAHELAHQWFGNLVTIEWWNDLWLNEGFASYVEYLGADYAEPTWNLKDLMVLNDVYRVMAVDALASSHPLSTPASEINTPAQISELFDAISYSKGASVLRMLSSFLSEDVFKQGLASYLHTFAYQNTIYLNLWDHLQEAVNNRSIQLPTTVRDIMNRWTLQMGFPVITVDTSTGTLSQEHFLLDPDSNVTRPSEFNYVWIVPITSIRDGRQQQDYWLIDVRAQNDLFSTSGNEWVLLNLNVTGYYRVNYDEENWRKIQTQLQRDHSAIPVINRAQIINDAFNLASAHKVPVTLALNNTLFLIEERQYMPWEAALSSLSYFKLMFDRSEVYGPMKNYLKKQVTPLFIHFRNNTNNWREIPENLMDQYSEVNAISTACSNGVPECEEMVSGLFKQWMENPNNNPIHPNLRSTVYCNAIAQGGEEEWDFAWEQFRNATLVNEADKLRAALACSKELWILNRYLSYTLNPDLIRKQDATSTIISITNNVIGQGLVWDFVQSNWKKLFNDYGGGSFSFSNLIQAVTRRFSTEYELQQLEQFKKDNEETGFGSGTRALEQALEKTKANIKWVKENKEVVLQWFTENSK

SMILES: O=C1c2cccc3c(Br)c([N+](=O)[O-])cc(c23)C(=O)N1c1cccc([N+](=O)[O-])c1 [A11.016]
IC50 (Table 11, read-out: IC50APN): 23.3 µM

SMILES: CC(=O)n1cc(/C=C/C=N/NC(=O)CC#N)c2ccccc21 [A3.214]
IC50 [2]: 35.5 µM

SMILES: O=C(NN=C(/C=C/c1ccccc1)c1ccccc1)c1cc2ccccc2cc1O [A4.028]
IC50 [3]: 13.7 µM

SMILES: CC(=O)Nc1ccc(C(=O)N/N=C/c2ccc(C)o2)cc1 [A3.183]
IC50 [2]: 29.7 µM

SMILES: CN(C)CCCN1CCN(c2nc(N(C)CC(=O)O)c3ncn(Cc4ccc([N+](=O)[O-])cc4)c3n2)CC1 [A9.024]
IC50 [4]: 11.8 µM

SMILES: CC1=C(C#N)C(=O)N(CCO)C(=O)/C1=C\c1ccc(-c2ccc(C)c(Cl)c2)o1 [A9.121]
IC50 [4]: 125 µM

SMILES: C/C(=N\NC(=O)c1cc(-c2ccco2)n[nH]1)c1ccco1 [A4.181]
IC50 [5]: 161 µM

SMILES: NNC(=O)c1ccc(NS(=O)(=O)c2cccs2)cc1 [A3.047]
IC50 [2]: 11.8 µM

SMILES: Cc1ccc(Cn2c(SCCC(=O)O)nc3c2c(=O)[nH]c(=O)n3C)cc1 [A3.267]
IC50 [1]: 53.2 µM

SMILES: Cc1ccc(/C=N/NC(=O)c2ccc(N3CCCC3=O)cc2)o1 [A3.241]
IC50 [2]: 44.2 µM

SMILES: CC1=C(C#N)C(=O)N(CC(C)O)C(=O)/C1=C/c1ccc(-c2cccc(Cl)c2C)o1 (stereo not shown) [A12.048]
IC50 (Table 12, read-out: IC50APN): 28.6 µM

SMILES: CCOC(=O)c1nc(C)[nH]c1N [A3.012]
IC50 [2]: 4.3 µM

SMILES: CCOC(=O)c1nc[nH]c1N [A3.007]
IC50 [1]: 2.6 µM

SMILES: Cc1ccc(/C=N/NC(=O)c2nnn(-c3nonc3N)c2-c2ccccc2)o1 [A3.025]
IC50 [2]: 6.9 µM

SMILES: CC(NC(=O)C(=O)N/N=C\c1cc([N+](=O)[O-])ccc1O)c1ccccc1 (stereo not shown) [A4.018]
IC50 [3]: 11.4 µM

SMILES: Cc1ccccc1NC(=O)C1C(c2cccs2)C(C#N)=C(SCC(=O)Nc2ccc(Br)cc2)NC1(C)O (stereo not shown) [A12.054]
IC50 (Table 12, read-out: IC50APN): 33.9 µM

SMILES: COc1ccc(C2NCCS2)cc1Br (stereo not shown) [A3.215]
IC50 [2]: 35.7 µM

SMILES: CC1CCc2c(sc(NC(=O)C(C(F)(F)F)C(F)(F)F)c2C#N)C1 (stereo not shown) [A13.022]
IC50 (Table 13, read-out: IC50APN): 51.3 µM

SMILES: Cc1cccc(C)c1NC(=S)NC(=O)c1cccs1 [A7.007]
IC50 (Table 7, read-out: IC50APN): 12.9 µM

SMILES: CCOC(=O)c1ncn(C)c1N [A3.262]
IC50 [2]: 50.1 µM

SMILES: COC(=O)C1=C(C(=O)OC)C(c2cc(Br)ccc2O)c2sc(O)nc2S1 (stereo not shown) [A9.006]
IC50 [4]: 4.7 µM

SMILES: O=C1C(Cc2ccc(O)cc2)NC(=S)N1Cc1ccccc1 (stereo not shown) [A3.145]
IC50 [1]: 23.7 µM

SMILES: O=C1C(Cc2ccc3[nH]ccc3c2)NC(=S)N1c1ccccc1 (stereo not shown) [A3.223]
IC50 [2]: 36.9 µM

SMILES: Cc1ccc(/C=N/NC(=O)COc2ccc(Cl)cc2)o1 [A3.076]
IC50 [2]: 16 µM

SMILES: Cc1ccc(/C=N/NC(=O)c2nnn(-c3nonc3N)c2CN2CCOCC2)o1 [A3.163]
IC50 [2]: 26.7 µM

SMILES: O=[N+]([O-])c1ncn(CN2CCOCC2)n1 [A3.222]
IC50 [2]: 36.6 µM

SMILES: CN(C)c1c(Cl)cc(/C(=N/O)N2CCOCC2)cc1Cl [A9.054]
IC50 [4]: 21.4 µM

SMILES: Cc1ccc(/C=N/NC(=O)c2ccccc2Cl)o1 [A4.044]
IC50 [3]: 17.7 µM

SMILES: Oc1ccc(Cl)cc1/N=C/c1ccc(-c2ccc(F)cc2)o1 [A3.305]
IC50 [2]: 77.3 µM

More lines, now with the values ahead:

IC50 [1]: 155 µM
SMILES: O=C(CNC(=O)c1cccc(F)c1)N/N=C/c1ccco1 [A3.333]

IC50 [2]: 11.8 µM
SMILES: Cc1ccc(C(=O)N/C(=C\c2ccco2)C(=O)N2CC3CC(C2)c2cccc(=O)n2C3)cc1C (stereo not shown) [A3.048]

IC50 [3]: 47 µM
SMILES: COc1ccc(N(C(C)C(=O)N/N=C/c2ccco2)S(C)(=O)=O)cc1 (stereo not shown) [A4.136]

IC50 [2]: 22.6 µM
SMILES: COc1ccc(C(=O)N/N=C/c2ccco2)cc1 [A3.134]

IC50 [3]: 20.6 µM
SMILES: O=C(N/N=C/c1ccco1)c1cccc(NC(=O)c2ccccc2Cl)c1 [A4.057]

IC50 [2]: 25.5 µM
SMILES: O=C(N/C(=C\c1ccco1)C(=O)N1CCOCC1)c1ccccc1Cl [A3.154]

IC50 [3]: 19.5 µM
SMILES: CCCOc1ccccc1-c1c[nH]c(C(=O)N/N=C/c2ccco2)c1 [A4.051]

IC50 [3]: 45.4 µM
SMILES: Cc1ccccc1C(=O)Nc1ccc(C(=O)N/N=C/c2ccco2)cc1 [A4.133]

IC50 [5]: 64.9 µM
SMILES: COc1ccc(C(=O)NCC(=O)N/N=C/c2ccco2)cc1OC [A4.156]

IC50 [5]: 91.2 µM
SMILES: O=C(CNC(=O)c1ccccc1Br)N/N=C/c1ccco1 [A4.171]

IC50 [2]: 27.7 µM
SMILES: CC1SC(N/N=C/c2ccco2)=NC1=O (stereo not shown) [A3.169]

IC50 [3]: 25.9 µM
SMILES: O=C(N/N=C/c1ccco1)c1cccc(NC(=O)c2ccc(F)cc2)c1 [A4.080]

IC50 [2]: 33.4 µM
SMILES: CCOc1ccc(-c2cc(C(=O)N/N=C/c3ccco3)[nH]n2)cc1OC [A3.201]

IC50 [1]: 79.8 µM
SMILES: Cn1c(=O)c2c(ncn2CC(=O)N/N=C/C=C\c2ccco2)n(C)c1=O [A3.307]

IC50 [2]: 13.1 µM
SMILES: CC(C)COc1ccc(C(=O)N/C(=C\c2ccco2)C(=O)N2CCOCC2)cc1 [A3.057]

IC50 (Table 8, starred values = ID50, read-out: ID50 APN (values marked with *)): 48.1 µM
SMILES: O=C(O)CC1S/C(=N/N=C/c2ccco2)NC1=O (stereo not shown) [A8.031]

IC50 [1]: 73.1 µM
SMILES: O=C(Cc1ccccc1)NCC(=O)N/N=C/c1ccco1 [A3.300]
